Assay results: PubChem BioAssay (NCI)
Values joined by “and” are separate entries in the source; they are usually repeats but may differ in a detail not shown here. Equal values may be shown once.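 Tested at 5 concentrations; 48 h exposure; 96-well plates; endpoints linearly interpolated, else capped at highest concentration. The concentration for 50% growth inhibition is given as GI50. TGI: concentration producing complete growth inhibition.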 Where a SMILES comes first, the peptide text is derived from it. [ ]: non-standard residue; d: D form. The star is where a group is joined. ξ: configuration not given here. ξPhe(4-NO2) = NC(Cc1ccc([N+](=O)[O-])cc1)C(=O)O; Boc = CC(C)(C)OC(=O)*; OBn = c1ccc(CO*)cc1

What was measured:
Assay in all cases: growth of human tumour cells (NCI), 48 h
[1] = system: HT29 colon
[2] = system: TK-10 renal
[3] = system: BT-549 breast
[4] = system: ACHN renal
[5] = system: EKVX NSCLC
[6] = system: SK-MEL-2 melanoma
[7] = system: UACC-62 melanoma
[8] = system: COLO 205 colon
[9] = system: HL-60(TB) leukemia
[10] = system: SK-MEL-5 melanoma
[11] = system: NCI-H23 lung
[12] = system: M14 melanoma

Compound Nc1nc(Cl)cc(NCC2(CO)CCC2)n1 has a TGI [1] greater than 100 µM, a TGI [2] greater than 100 µM and a TGI [3] greater than 100 µM. For the same compound, the TGI [4] was greater than 100 µM, the TGI [5] was greater than 100 µM and the TGI [6] was greater than 100 µM. It also gave a TGI [7] greater than 100 µM, a TGI [8] greater than 100 µM and a TGI [9] greater than 100 µM. For the same compound, the TGI [10] was greater than 100 µM and the TGI [11] was greater than 100 µM.

With N#CC1=C(C#N)/C(=C(\C#N)C(C#N)C#N)N=C1N the TGI [1] was 62.1 µM, the TGI [2] was greater than 68.3 µM and the TGI [3] was greater than 78.7 µM. For the same compound, the TGI [4] was greater than 100 µM, the TGI [5] was greater than 100 µM and the TGI [12] was 34.3 µM. For the same compound, the TGI [6] was 31.6 µM, the TGI [7] was 30.3 µM and the TGI [8] was 57.3 µM. It also gave a TGI [9] of 39.1 µM, a TGI [10] of 31.8 µM and a TGI [11] greater than 100 µM.

CCOC(=O)c1nnsc1NC(=O)Nc1ccc(Cl)cc1 was tested, and the TGI [1] was greater than 100 µM, the TGI [2] was greater than 100 µM and the TGI [3] was greater than 100 µM. The TGI [4] was greater than 100 µM, the TGI [5] was greater than 100 µM and the TGI [12] was greater than 100 µM. The TGI [6] was greater than 100 µM, the TGI [7] was greater than 100 µM and the TGI [8] was greater than 100 µM. It also gave a TGI [10] greater than 100 µM and a TGI [11] greater than 100 µM.

With COc1cc(C)cc2c1C(=O)C(Br)=CC2=O the TGI [1] was 35 µM, the TGI [2] was 5.9 µM and the TGI [3] was 23.2 µM. The TGI [4] was 6.96 µM, the TGI [5] was 33.4 µM and the TGI [12] was 14.1 µM. It also gave a TGI [6] of 29.4 µM, a TGI [7] of 23.3 µM and a TGI [8] of 3.23 µM. The TGI [10] was 25.1 µM and the TGI [11] was 39.4 µM.

With C=CCNC(=O)/C(Cc1cc(Br)c(OC)c(Br)c1O)=N\O the TGI [1] was 35 µM, the TGI [2] was 64.8 µM and the TGI [3] was 18.3 µM. The TGI [4] was greater than 100 µM, the TGI [5] was 25.2 µM and the TGI [12] was 23.6 µM. It also gave a TGI [6] of 44.5 µM, a TGI [7] of 34.8 µM and a TGI [8] of 26 µM. It also gave a TGI [9] of 5.43 µM, a TGI [10] of 11.6 µM and a TGI [11] of 18.1 µM.

COc1ccc(C2CC(=O)Oc3ccccc3O2)cc1 (stereo unspecified) gave a TGI [1] greater than 100 µM, a TGI [2] greater than 100 µM and a TGI [3] greater than 100 µM. For the same compound, the TGI [4] was greater than 100 µM, the TGI [5] was greater than 100 µM and the TGI [7] was greater than 100 µM. It also gave a TGI [8] greater than 100 µM, a TGI [9] greater than 100 µM and a TGI [10] greater than 100 µM. For the same compound, the TGI [11] was greater than 100 µM.

With CC(C)(C)OC(=O)NC(Cc1ccc([N+](=O)[O-])cc1)C(=O)NCC(=O)OCc1ccccc1 (stereo unspecified) (Boc-[ξPhe(4-NO2)]-Gly-OBn) the TGI [1] was 61.3 µM, the TGI [2] was greater than 100 µM and the TGI [3] was 59.6 µM. The TGI [4] was 48.4 µM, the TGI [5] was greater than 100 µM and the TGI [12] was 37.6 µM. The TGI [7] was 32 µM, the TGI [8] was 32.3 µM and the TGI [9] was greater than 100 µM. For the same compound, the TGI [10] was 46.2 µM and the TGI [11] was 47.5 µM.

Work on Cn1cc2c(=O)n3ncn(-c4ccc(Br)cc4)c3nc2n1 yielded a TGI [1] greater than 100 µM, a TGI [2] greater than 100 µM and a TGI [3] greater than 100 µM. It also gave a TGI [4] greater than 100 µM, a TGI [5] greater than 100 µM and a TGI [12] greater than 100 µM. The TGI [6] was greater than 100 µM, the TGI [7] was greater than 100 µM and the TGI [8] was greater than 100 µM. For the same compound, the TGI [9] was greater than 100 µM, the TGI [10] was greater than 100 µM and the TGI [11] was greater than 100 µM.

In the case of CN(C)c1ncnc2c1ncn2C1C=CC(COS(N)(=O)=O)C1 (stereo unspecified), the TGI [1] was greater than 100 µM, the TGI [3] was greater than 100 µM and the TGI [4] was greater than 100 µM. The TGI [5] was greater than 100 µM, the TGI [12] was greater than 100 µM and the TGI [6] was greater than 100 µM. It also gave a TGI [7] greater than 100 µM, a TGI [8] greater than 100 µM and a TGI [9] greater than 100 µM. It also gave a TGI [10] greater than 100 µM and a TGI [11] greater than 100 µM.

Compound COC(=O)/C(C#N)=C1\NC(=O)CC(c2ccccc2)C1C#N (stereo unspecified) has a TGI [1] greater than 100 µM, a TGI [2] greater than 100 µM and a TGI [3] greater than 100 µM. The TGI [4] was greater than 100 µM, the TGI [5] was greater than 100 µM and the TGI [12] was greater than 100 µM. The TGI [6] was greater than 100 µM, the TGI [7] was greater than 100 µM and the TGI [8] was greater than 100 µM. The TGI [9] was greater than 100 µM and the TGI [10] was greater than 100 µM.

Work on CC(NC(=O)/C(C#N)=C/c1ccc2[nH]ccc2c1)c1ccccc1 (stereo unspecified) yielded a TGI [1] of 31.6 µM, a TGI [2] of 50.1 µM and a TGI [3] of 23.5 µM. For the same compound, the TGI [4] was greater than 64.9 µM, the TGI [5] was 50.4 µM and the TGI [12] was 37.2 µM. The TGI [6] was 39.9 µM, the TGI [7] was 31.8 µM and the TGI [8] was 30.7 µM. It also gave a TGI [9] of 54.8 µM, a TGI [10] of 33 µM and a TGI [11] of 43.3 µM.

CN(C)CCOC1(Cc2ccc(Cl)cc2Cl)CCC(C(C)(C)C)CC1 (stereo unspecified) was tested, and the TGI [1] was 3.16 µM and 3.13 µM, the GI50 [2] was 2.02 µM and the TGI [2] was 4.99 µM and 2.75 µM. For the same compound, the TGI [3] was 3.16 µM and 3.25 µM, the GI50 [4] was 1.99 µM and the TGI [4] was 5.28 µM and 4.05 µM. For the same compound, the GI50 [5] was 3.04 µM and 4.01 µM, the TGI [5] was 8.25 µM and 9.01 µM and the TGI [12] was 3.25 µM and 3.11 µM. For the same compound, the TGI [6] was 3.89 µM and 3.33 µM, the GI50 [7] was 3.7 µM and the TGI [7] was 3.9 µM and 9.66 µM. For the same compound, the TGI [8] was 3.28 µM and 3.23 µM, the GI50 [9] was 1.45 µM and 2.08 µM and the TGI [9] was 3.61 µM and 3.92 µM. For the same compound, the GI50 [10] was 2.05 µM, the TGI [10] was 3.07 µM and 3.61 µM and the TGI [11] was 5.74 µM and 4.15 µM.

With O=c1cc(NCC2CCCCC2)[nH]c(=O)[nH]1 the TGI [2] was greater than 100 µM, the TGI [3] was greater than 100 µM and the TGI [4] was greater than 100 µM. For the same compound, the TGI [5] was greater than 100 µM, the TGI [12] was greater than 100 µM and the TGI [8] was greater than 100 µM. The TGI [9] was greater than 100 µM, the TGI [10] was greater than 100 µM and the TGI [11] was greater than 100 µM.

NC(=O)C(=CN1C(=O)CC(=O)NC1=S)C(N)=O gave a TGI [1] greater than 100 µM, a TGI [2] greater than 100 µM and a TGI [3] greater than 100 µM. For the same compound, the TGI [4] was greater than 100 µM, the TGI [5] was greater than 100 µM and the TGI [12] was greater than 100 µM. It also gave a TGI [6] greater than 100 µM, a TGI [8] greater than 100 µM and a TGI [9] greater than 100 µM. It also gave a TGI [10] greater than 100 µM and a TGI [11] greater than 100 µM.

C[C@H]1C(OCCOC2O[C@@H]3O[C@@]4(C)CC[C@H]5[C@H](C)CCC([C@H]2C)[C@@]35O4)O[C@@H]2O[C@@]3(C)CC[C@H]4[C@H](C)CCC1[C@@]24O3 (stereo partly specified) showed a TGI [1] greater than 100 µM, a TGI [3] greater than 100 µM and a TGI [4] greater than 100 µM. The TGI [12] was greater than 100 µM, the TGI [6] was 42.3 µM and the TGI [7] was greater than 100 µM. For the same compound, the TGI [8] was 37.7 µM, the TGI [9] was 74.9 µM and the TGI [10] was 32.2 µM. The TGI [11] was greater than 100 µM.

COc1cc(/C=C2/SC(c3ccccc3)N(c3ccc(Cl)cc3)C2=O)cc(OC)c1OC (stereo unspecified) gave a TGI [1] greater than 100 µM, a TGI [2] greater than 100 µM and a TGI [3] greater than 100 µM. For the same compound, the TGI [4] was greater than 100 µM, the TGI [5] was greater than 100 µM and the TGI [12] was greater than 63.3 µM. The TGI [6] was greater than 100 µM, the TGI [7] was greater than 100 µM and the TGI [8] was greater than 42.6 µM. For the same compound, the TGI [9] was greater than 100 µM and the TGI [11] was greater than 100 µM.

COc1ccc(-c2c3c(n(C4OC(CO)C(O)C(O)C4O)c(=S)c2C#N)CC(C)(C)CC3=O)cc1 (stereo unspecified) was tested, and the TGI [1] was greater than 100 µM, the TGI [2] was greater than 100 µM and the TGI [3] was greater than 100 µM. For the same compound, the TGI [4] was greater than 100 µM, the TGI [12] was greater than 100 µM and the TGI [6] was greater than 100 µM. It also gave a TGI [7] greater than 100 µM, a TGI [8] greater than 100 µM and a TGI [9] greater than 100 µM. The TGI [10] was greater than 100 µM and the TGI [11] was greater than 100 µM.

Work on CCCC(=O)N/S(=N/S(=O)(=O)c1ccc(Cl)cc1)C(Cl)(Cl)Cl (stereo unspecified) yielded a TGI [1] greater than 100 µM, a TGI [2] greater than 100 µM and a TGI [3] greater than 100 µM. It also gave a TGI [4] greater than 100 µM, a TGI [5] greater than 100 µM and a TGI [12] greater than 100 µM. It also gave a TGI [6] greater than 100 µM, a TGI [7] greater than 100 µM and a TGI [9] greater than 100 µM. For the same compound, the TGI [10] was greater than 100 µM and the TGI [11] was greater than 100 µM.

OCCSCc1cc2c(O)c(c1)Cc1cc(CSCCO)cc(c1O)Cc1cc(CSCCO)cc(c1O)Cc1cc(CSCCO)cc(c1O)C2 showed a TGI [1] of 7.4 µM, a TGI [2] of 37 µM and a TGI [3] of 11.7 µM. It also gave a TGI [4] of 9.61 µM, a TGI [5] of 46.1 µM and a TGI [12] of 12.7 µM. It also gave a TGI [6] of 5.25 µM, a TGI [8] of 7.31 µM and a TGI [9] greater than 100 µM. The TGI [10] was 4.4 µM and the TGI [11] was 16.7 µM.
